Data as given in patent publication US8343939B2, “Methods of modulating angiogenesis” (Joslin Diabetes Center, Inc., priority 2007, dated 2013).

Assays:
[1] = system: eNOS Ser1179 phosphorylation; test: Western blot of eNOS phosphorylation in BAEC; assay type: cell-based, bovine; conditions: for eNOS Ser1179 phosphorylation increased during stimulation: insulin 100 nM or VEGF 1 nM
Method: (§1) Bovine aortic endothelial cells (BAEC) were isolated by scraping the luminal side of a calf aorta with a cover glass and transferring the harvested material to a 100 mm cell culture dish. The primary culture and subcultures were grown in Dulbecco's modified Eagle medium (DMEM) with 5.5 mM glucose, 10% (v/v) horse serum, 25 mM HEPES, 100 U/ml penicillin, and 100 μg/ml streptomycin in collagen I-coated dishes (BioCoat, BD BioSciences). Purity of the cultures was validated by the presence of typical “cobblestone” morphology during phase-contrast microscopy (16) and by the ability of cells to take up acetylated LDL (DiI AcLDL, Molecular Probes, Eugene, Oreg.). Cultures used for experiments were plated in 6-well plates (9.5 cm^2 wells), except for PKC translocation assays (see below). The cells were serum-starved for 16 hours before stimulation by replacing growth medium with DMEM containing 0.1% (w/v) bovine serum albumin. At the time of stimulation, cultures were typically 3 days old and confluent. GF109203X (GFX) (Calbiochem, San Diego, Calif.), wortmannin (Calbiochem), phorbol-12-myristate-13-acetate (PMA) (Sigma, St. Louis, Mo.), bovine insulin (Sigma), and VEGF-A165 (R & D Systems, Minneapolis, Minn.) were added directly to the culture medium when indicated, using an identical volume of solvent as control.
(§2) Cultures were washed twice with ice-cold PBS and lysed in a buffer containing Tris (20 mM, pH 7.5), Triton X-100 (1% v/v), sodium pyrophosphate (2.5 mM); NaF (10 mM), NaCl (140 mM), EDTA (1 mM), EGTA (1 mM), β-glycerophosphate (1 mM), Na3VO4 (1 mM), leupeptin (1 μg/ml=2 μM), aprotinin (1 μg/ml=[…]), and phenylmethylsulfonylfluoride (1 mM). Protein concentration was measured by the Bradford method and samples reduced in modified Laemmli buffer (Invitrogen) and heated at 70° C. for 10 minutes. Equal sample volume and protein mass and reduced samples were separated on precast minigels (NuPAGE tris-acetate gels, Invitrogen) and electrotransferred to nitrocellulose.
(§3) Primary antibody targets were visualized by incubation with horseradish peroxidase-linked secondary antibodies, enhanced chemiluminescence (Amersham Biosciences (currently GE Healthcare), Piscataway, N.J.), and exposure to X-ray film (Kodak, New Haven, Conn.). The film was scanned and signal intensity of protein bands quantitated with ImageQuant software (version 5.1, Molecular Dynamics/Amersham Biosciences/GE Healthcare, Piscataway, N.J.). The intensity of phospho-specific immunoblot was normalized to the intensity of the unstimulated condition and of the nonphospho-specific protein.
BAEC were stimulated with insulin (100 nM, 5 minutes) or VEGF (1 nM, 5 minutes) after pretreatment with PMA (100 nM, 30 minutes) or vehicle as a control (DMSO, 0.2% (v/v)). Akt and eNOS phosphorylation in the BAEC was examined. In some experiments (FIGS. 1C and 1D), BAEC were also incubated with GFX (1 μM) or vehicle (DMSO 0.2%) 60 minutes before insulin or VEGF stimulation.
(§4) BAEC were stimulated with insulin (100 nM, 5 minutes) or VEGF (1 nM, 5 minutes) after pretreatment with wortmannin (100 nM, 30 minutes before insulin or VEGF stimulation) or vehicle (DMSO 0.2% (v/v)). In some experiments (FIG. 2C), BAEC were incubated with wortmannin (60 minutes before VEGF stimulation) or DMSO, then with PMA (30 minutes before VEGF stimulation) or DMSO.

[2] = system: Akt Ser473 phosphorylation; test: Western blot of Akt phosphorylation in BAEC; assay type: cell-based, bovine; conditions: for Akt Ser473 phosphorylation increased after stimulation: BAEC, insulin 100 nM or VEGF 1 nM; for decrease in Akt Ser473 phosphorylation: PMA 100 nM, 30 minutes
Method: as §1, §2, §3
BAEC were stimulated with insulin (100 nM, 5 minutes) or VEGF (1 nM, 5 minutes) after pretreatment with PMA (100 nM, 30 minutes) or vehicle as a control (DMSO, 0.2% (v/v)). Akt and eNOS phosphorylation in the BAEC was examined. […]
as §4

PKCδ = conditions: for translocation of PKCδ from cytosol to membrane fractions: VEGF 1 nM, 3, 10 or 30 minutes, PMA 100 nM, 10 minutes
Method: (§5) For each condition, three 15 cm plates (each 151 cm^2) were used. After stimulation, the plates were washed twice in ice-cold PBS and once in a hypertonic lysis buffer (Buffer A) containing Tris (pH 7.5, 20 mM), sucrose (300 mM), EDTA (2 mM), EGTA (0.5 mM), DTT (1 mM), leupeptin (10 μg/ml), and PMSF (1 mM). Each set of 3 plates were then scraped in a combined volume of 3 ml of hypertonic buffer, homogenized in a glass Dounce homogenizer, and centrifuged at 1,000×g for 10 minutes. The supernatant was ultracentrifuged at 100,000×g for 30 minutes, and the ensuing supernatant was taken aside and used as the cytosolic fraction. The pellet was washed once in Buffer B (Buffer A without sucrose), then homogenized in 2.7 ml Buffer B in a glass Dounce homogenizer, and finally lysed by adding 0.3 ml Triton X-100 to a final concentration of 1% (v/v) and rotated for 30 minutes. After ultracentrifugation at 100,000×g for 30 minutes, the supernatant was taken aside and used as the membrane fraction. By using similar volumes for the initial lysis and for the membrane pellet, protein abundance in the cytosol and membrane fraction approximately represent their relative expression in the intact cell. Protein concentration was measured in both fractions with the bicinchoninic acid (BCA) assay, and samples were normalized for protein concentration and assayed by electrophoresis and Western blotting as described below.
(§6) BAEC were stimulated with VEGF (1 nM; 3, 10, or 30 minutes) or PMA (100 nM, 10 minutes).

BAEC = test: DNA synthesis by BrdU incorporation in BAEC; assay type: cell-based, bovine; conditions: control siRNA condition; VEGF 1 nM
Method: For measurement of DNA synthesis, cells were trypsin-treated 2 days after transfection with siRNA, and 10,000 cells were added to each well (0.32 cm^2) of 96-well plates in serum-free DMEM with 0.1% BSA, with or without VEGF 1 nM. After 16 hours, cells were labeled with 5-bromo-2′-deoxyuridine (BrdU) according to the manufacturer's instructions (Roche Applied Science, Penzberg, Germany). In short, the medium was replaced with medium containing 10 μM BrdU. After an additional 8 hours, cells were fixed and incubated with anti-BrdU antibody conjugated with peroxidase. After washing, a solution of tetramethyl-benzidine was added, and the color reaction quantitated by measuring the difference between the optical density at 370 and 492 nm.

PKCα = PKCα (Bos taurus, UniProt P04409); test: Membrane translocation of PKC isoforms (cell fractionation, immunoblot) in BAEC; assay type: cell-based, bovine; conditions: for translocation of PKCα from cytosol to membrane fractions: VEGF 1 nM, 3, 10 or 30 minutes, PMA 100 nM, 10 minutes
PKCε = conditions: for translocation of PKCε from cytosol to membrane fractions: VEGF 1 nM, 3, 10 or 30 minutes, PMA 100 nM, 10 minutes
Method: as §5, §6

VEGFR2 = VEGFR2 protein expression (immunoprecipitation and immunoblot) in BAEC; assay type: cell-based, bovine; conditions: cells transfected with control siRNA; VEGF 1 nM, 5 minutes
Method: For VEGFR2 and VEGFR1 immunoprecipitation, approximately 1 mg of protein was immunoprecipitated with 20 μg polyclonal antibody (Santa Cruz Biotechnology, Santa Cruz, Calif.) and washed 3 times with lysis buffer. Whole cell lysate or immunoprecipitates were reduced by addition of modified Laemmli buffer (Invitrogen) and heating to 70° C. for 10 minutes. Samples were then separated on precast minigels (NuPAGE tris-acetate gels, Invitrogen) and electrotransferred to a nitrocellulose membrane. […]
as §3, with “The intensity of phospho-specific immunoblot was normalized to the intensity of the unstimulated condition and of the nonphospho-specific protein.” left out

Erk1/2 phosphorylation = test: Western blot of Erk1/2 phosphorylation in BAEC; assay type: cell-based, bovine; conditions: control siRNA; VEGF 1 nM, 5 minutes
Method: as §2, §3

eNOS, Akt, Erk, or p38 = test: Phosphorylation of eNOS, Akt, Erk, p38 after placental growth factor in BAEC; assay type: cell-based, bovine; conditions: data not shown
Method: Next, VEGFR1 and VEGFR2 expression was examined. BAEC were transfected with siRNA, including the PKCε siRNA used in the previous experiments (abbreviated “ε1” here) and a second PKCε (“ε2”), grown, and serum-starved. VEGFR2 (a) or VEGFR1 (b) mRNA was measured in cell lysate by real-time PCR VEGF signal transduction during PKC knockdown could change because VEGFR2 expression results in a secondary change in VEGFR1/Fms-like tyrosine kinase-1 (Flt-1) expression. Indeed, PKCα and PKCδ knockdown increased VEGFR1 mRNA expression to 240±20 and 178±1% of the control siRNA condition, respectively (FIG. 12b, p<0.01). […] VEGFR1 protein or VEGFR1-mediated signal transduction was not detected by Western blotting in these cells. […] Thus, VEGFR1 protein is likely expressed at a very low level compared to VEGFR2 in BAEC. Changes seen in VEGF signal transduction during PKCα and δ knockdown could be influenced by upregulation of VEGFR1, but there is no indication that changes in VEGF signaling during PKCε knockdown can be attributed to changes in VEGFR1 mRNA expression.

[3] = GFX 1 μM, 30 minutes pre-incubation, with or without insulin or VEGF
[4] = control siRNA condition, VEGF 1 nM, 5 minutes

COC[C@H]1OC(=O)c2coc3c2[C@@]1(C)C1=C(C3=O)[C@@H]2CCC(=O)[C@@]2(C)C[C@H]1OC(C)=O [wortmannin]
inhibition at 0.1 µM ([1]; Bos taurus, BAEC, wortmannin 100 nM, 30 minutes, VEGF 1 nM, 5 minutes, read-out: inhibition of VEGF-stimulated eNOS phosphorylation): 30 ± 9% | eNOS phosphorylation, % of basal ([1]; wortmannin 100 nM, 30 minutes, unstimulated): 63±1 % of basal

insulin: bovine insulin (Sigma)
Akt Ser473 phosphorylation increased after stimulation ([2]; 5 minutes): 3.7±0.7 fold | eNOS Ser1179 phosphorylation increased during stimulation ([1]; BAEC, 5 minutes): 1.8±0.2 fold

CN(C)CCCn1cc(C2=C(c3c[nH]c4ccccc34)C(=O)NC2=O)c2ccccc21 [GFX, GF109203X]
effect on the actions of PMA on Akt phosphorylation [2, 3]: completely prevented | effect on the actions of PMA on eNOS phosphorylation [1, 3]: completely prevented

VEGF
translocation of PKCδ from cytosol to membrane fractions (PKCδ): stimulated translocation | maximal decrease in cytosol expression of PKCδ (PKCδ; VEGF 1 nM, at 3 minutes): 29±25% | maximal increase in membrane expression of PKCδ (PKCδ; VEGF 1 nM, at 10 minutes): 39±10% | Akt Ser473 phosphorylation increased after stimulation ([2]; 5 minutes): 2.9±0.8 fold | VEGF-stimulated Akt phosphorylation, fold increase [2, 4]: 1.7±0.1 fold | VEGF-increased BrdU incorporation (BAEC): 34% | translocation of PKCα from cytosol to membrane fractions (PKCα): stimulated translocation | maximal decrease in cytosol expression of PKCα (PKCα; VEGF 1 nM, at 3 minutes): 18±10% | maximal increase in membrane expression of PKCα (PKCα; VEGF 1 nM, at 3 minutes): 72±57% | translocation of PKCε from cytosol to membrane fractions (PKCε): stimulated translocation | maximal decrease in cytosol expression of PKCε (PKCε; VEGF 1 nM, at 3 minutes): 57±21% | maximal increase in membrane expression of PKCε (PKCε; VEGF 1 nM, at 3 minutes): 31±5% | VEGF-stimulated decrease in VEGFR2 protein (VEGFR2): 12±3% | VEGF-increased phosphorylation of Erk1/2 (Erk1/2 phosphorylation): 10±1.8 fold | eNOS Ser1179 phosphorylation increased during stimulation ([1]; BAEC, 5 minutes): 2.6±0.5 fold | VEGF-stimulated eNOS phosphorylation, fold increase [1, 4]: 5.2±0.5 fold

CCCCCCCCCCCCCC(=O)O[C@@H]1[C@@H](C)[C@@]2(O)[C@@H](C=C(CO)C[C@]3(O)C(=O)C(C)=C[C@@H]23)[C@@H]2C(C)(C)[C@]12OC(C)=O [PMA, phorbol-12-myristate-13-acetate]
translocation of PKCδ from cytosol to membrane fractions (PKCδ): stimulated translocation | decrease in Akt Ser473 phosphorylation ([2]; after VEGF stimulation (1 nM, 5 minutes)): 79±4% | decrease in Akt Ser473 phosphorylation ([2]; after insulin stimulation (100 nM, 5 minutes)): 81±4% | decrease in Akt Ser473 phosphorylation ([2]; basal state): 59±12% | translocation of PKCα from cytosol to membrane fractions (PKCα): stimulated translocation | translocation of PKCε from cytosol to membrane fractions (PKCε): stimulated translocation | eNOS Ser1179 phosphorylation increase when VEGF was preceded by PMA ([1]; PMA 100 nM, 30 minutes, VEGF 1 nM, 5 minutes): 2.7±0.4 fold | eNOS Ser1179 phosphorylation increase when insulin was preceded by PMA ([1]; PMA 100 nM, 30 minutes, insulin 100 nM, 5 minutes): 1.2±0.2 fold | increase in VEGF-stimulated eNOS Ser1179 phosphorylation ([1]; PMA in the presence of wortmannin): 50±9%

B1: placental growth factor: placental growth factor, which activates VEGFR1 but not VEGFR2 (protein, UniProt P49763 19-221, looked up)
Placenta growth factor: LPAVPPQQWALSAGNGSSEVEVVPFQEVWGRSYCRALERLVDVVSEYPSEVEHMFSPSCVSLLRCTGCCGDENLHCVPVETANVTMQLLKIRSGDRPSYVELTFSQHVRCECRHSPGRQSPDMPGDFRADAPSFLPPRRSLPMLFRMEWGCALTGSQSAVWPSSPVPEEIPRMHPGRNGKKQQRKPLREKMKPERCGDAVPRR
phosphorylation of eNOS, Akt, Erk, or p38 (eNOS, Akt, Erk, or p38): did not increase
